Data on five compounds can be found in ChEMBL document CHEMBL5223117, “Synthesis and biological evaluation of novel N, N'-diarylurea derivatives as potent antibacterial agents against MRSA” (Bioorg Med Chem Lett, 2022).

Data set [1] has as its system Staphylococcus aureus. As to the kind of experiment: Selectivity ratio of MBC for bactericidal activity against methicillin resistant Staphylococcus aureus ATCC 43300 to MIC for antibacterial activity against methicillin resistant Staphylococcus aureus ATCC 43300. It is filed as functional.
Data set [2] has as its system Staphylococcus aureus. The data set is described as follows: Selectivity ratio of MBC for bactericidal activity against methicillin resistant Staphylococcus aureus ATCC 33591 to MIC for antibacterial activity against methicillin resistant Staphylococcus aureus ATCC 33591. It is filed as functional.
Data set [3] relates to Staphylococcus aureus. The data set is described as follows: Bactericidal activity against methicillin resistant Staphylococcus aureus 16-30. It is filed as functional.
The test system of data set [4] is Staphylococcus epidermidis. The data set is described as follows: Antibacterial activity against methicillin sensitive Staphylococcus epidermidis ATCC 12228. It is filed as functional.
Data set [5] has as its system Staphylococcus epidermidis. As to the kind of experiment: Antibacterial activity against methicillin sensitive Staphylococcus epidermidis 17-13. Type of data set: functional.
In data set [6] the test system is Staphylococcus epidermidis. As to the kind of experiment: Antibacterial activity against methicillin resistant Staphylococcus epidermidis 19-1. Type of data set: functional.
Data set [7] relates to Staphylococcus epidermidis. As to the kind of experiment: Antibacterial activity against methicillin resistant Staphylococcus epidermidis 19-2. It is filed as functional.
The test system of data set [8] is Staphylococcus aureus. As to the kind of experiment: Antibacterial activity against methicillin sensitive Staphylococcus aureus ATCC 29213. It is filed as functional.
For data set [9], the system named is Staphylococcus aureus. As to the kind of experiment: Antibacterial activity against methicillin sensitive Staphylococcus aureus 15. It is filed as functional.
Data set [10] deals with Staphylococcus aureus. The data set is described as follows: Antibacterial activity against methicillin resistant Staphylococcus aureus 20-11. It is filed as functional.
The subject of data set [11] is Staphylococcus aureus. The data set is described as follows: Antibacterial activity against methicillin resistant Staphylococcus aureus ATCC 43300. It is filed as functional.
The test system of data set [12] is Staphylococcus aureus. As to the kind of experiment: Antibacterial activity against vancomycin intermediate and methicillin resistant Staphylococcus aureus ATCC 700698. It is filed as functional.
In data set [13] the test system is Staphylococcus aureus. The data set is described as follows: Antibacterial activity against vancomycin intermediate and methicillin resistant Staphylococcus aureus ATCC 700699. It is filed as functional.
Data set [14] deals with Staphylococcus aureus. As to the kind of experiment: Antibacterial activity against methicillin sensitive Staphylococcus aureus 20-12. It is filed as functional.
Data set [15] concerns Staphylococcus aureus. The data set is described as follows: Antibacterial activity against methicillin sensitive Staphylococcus aureus ATCC 33591. Type of data set: functional.
In data set [16] the test system is Staphylococcus aureus. The data set is described as follows: Antibacterial activity against methicillin resistant Staphylococcus aureus 18-2. It is filed as functional.
Data set [17] concerns Enterococcus faecalis. The data set is described as follows: Antibacterial activity against Vanomycin-resistant Enterococcus faecalis ATCC 51299. It is filed as functional.
In data set [18] the test system is Enterococcus faecalis. As to the kind of experiment: Antibacterial activity against Vanomycin-resistant Enterococcus faecalis ATCC 51575. Type of data set: functional.
In data set [19] the test system is Enterococcus faecium. The data set is described as follows: Antibacterial activity against Vanomycin-resistant Enterococcus faecium ATCC 700221. Type of data set: functional.
For data set [20], the system named is Enterococcus faecium. The data set is described as follows: Antibacterial activity against Vanomycin-resistant Enterococcus faecium ATCC 51559. Type of data set: functional.
For data set [21], the system named is Enterococcus faecium. As to the kind of experiment: Antibacterial activity against Vanomycin-resistant Enterococcus faecium 15-6. It is filed as functional.
A short description of data set [22]: Cytotoxicity against human HeLa cells by SRB assay. Type of data set: toxicity, cell-based. On the technique in general: Sulforhodamine B stains cellular protein and so reports cell mass.
Data set [23] in a line: Cytotoxicity against human HepG2 cells by SRB assay. It is filed as toxicity, cell-based.
For data set [24], the system named is Staphylococcus aureus. The data set is described as follows: Antibacterial activity against methicillin resistant Staphylococcus aureus 16-30. Type of data set: functional.
The subject of data set [25] is Staphylococcus aureus. The data set is described as follows: Antibacterial activity against methicillin resistant Staphylococcus aureus ATCC 33591. Type of data set: functional.
Data set [26] has as its system Staphylococcus aureus. The data set is described as follows: Bactericidal activity against methicillin resistant Staphylococcus aureus ATCC 33591. Type of data set: functional.
Data set [27] has as its system Staphylococcus aureus. The data set is described as follows: Bactericidal activity against methicillin resistant Staphylococcus aureus ATCC 43300. It is filed as functional.
Data set [28] has as its system Staphylococcus aureus. As to the kind of experiment: Selectivity ratio of MBC for bactericidal activity against methicillin resistant Staphylococcus aureus 16-30 to MIC for antibacterial activity against methicillin resistant Staphylococcus aureus 16-30. Type of data set: functional.

pIC50: −log10 of the molar value. Converted amounts (≈) assume the structure as drawn.

By MBC is commonly meant the smallest concentration meeting the test's criterion for killing. Low values mean greater bactericidal potency, high ones weaker bactericidal potency. In general, MIC refers to the smallest concentration in the dilution series that meets the test's criterion for growth inhibition. A high value points to weaker potency. In general, pIC50 refers to −log10 of the IC50, conventionally taken in molar units. High values mean a low IC50, low ones a high IC50. Regarding `O=C(Nc1ccc2c(c1)OC(F)(F)O2)Nc1ccc(Cl)c(C(F)(F)F)c1`, the results for the Ratio with Staphylococcus aureus [1], in the data set with Staphylococcus aureus [2] and in the data set on Staphylococcus aureus [28] were 4, 4 and 8, respectively. Also, the MBC with Staphylococcus aureus [3] is 5.07 µM (≈ 2 µg/mL); against Staphylococcus aureus [26] it was 2.53 µM (≈ 0.999 µg/mL); against Staphylococcus aureus [27] it was 2.53 µM (≈ 0.999 µg/mL). Further, the MIC amounted to 1.27 µM (≈ 0.501 µg/mL) in [4]; 1.27 µM (≈ 0.501 µg/mL) in data set [5]; 1.27 µM (≈ 0.501 µg/mL) in [6]; 1.27 µM (≈ 0.501 µg/mL) in data set [7]; 0.63 µM (≈ 0.249 µg/mL) with Staphylococcus aureus [8]; 0.63 µM (≈ 0.249 µg/mL) in the data set on Staphylococcus aureus [9]. Moreover, the MIC is 1.27 µM (≈ 0.501 µg/mL) with Staphylococcus aureus [10]; 0.63 µM (≈ 0.249 µg/mL) in the data set on Staphylococcus aureus [11]; 0.63 µM (≈ 0.249 µg/mL) with Staphylococcus aureus [12]; 0.63 µM (≈ 0.249 µg/mL) in the data set on Staphylococcus aureus [13]; 1.27 µM (≈ 0.501 µg/mL) in the data set on Staphylococcus aureus [14]; 0.63 µM (≈ 0.249 µg/mL) against Staphylococcus aureus [15]. Further, the minimal inhibitory concentration (MIC) in the data set with Staphylococcus aureus [16] came out at 1.27 µM (≈ 0.501 µg/mL); against Enterococcus faecalis [17] it was 5.07 µM (≈ 2 µg/mL); against Enterococcus faecalis [18], 10.1 µM (≈ 4 µg/mL); against Enterococcus faecium [19], 10.1 µM (≈ 4 µg/mL); in the data set with Enterococcus faecium [20], 10.1 µM (≈ 4 µg/mL); in the data set with Enterococcus faecium [21], 5.07 µM (≈ 2 µg/mL). Besides, the MIC in the data set on Staphylococcus aureus [24] and with Staphylococcus aureus [25] was 0.63 µM (≈ 0.249 µg/mL) throughout. The pIC50 is 5.04 in [22] and 5.25 in data set [23].
Regarding `O=C(Nc1ccc(C(F)(F)F)cc1)Nc1ccc(Cl)c(C(F)(F)F)c1`, the MIC in [4] worked out at 20.9 µM (≈ 8 µg/mL); in data set [5] it was 20.9 µM (≈ 8 µg/mL); in data set [6], 10.4 µM (≈ 4 µg/mL); in [7] it was 10.4 µM (≈ 4 µg/mL); with Staphylococcus aureus [8], 20.9 µM (≈ 8 µg/mL); in the data set with Staphylococcus aureus [9], 10.4 µM (≈ 4 µg/mL). For the same compound, the MIC in the data set on Staphylococcus aureus [10] is 20.9 µM (≈ 8 µg/mL); against Staphylococcus aureus [11], 20.9 µM (≈ 8 µg/mL); in the data set with Staphylococcus aureus [12], 20.9 µM (≈ 8 µg/mL); with Staphylococcus aureus [13], 10.4 µM (≈ 4 µg/mL); in the data set with Staphylococcus aureus [14], 20.9 µM (≈ 8 µg/mL); against Staphylococcus aureus [15], 10.4 µM (≈ 4 µg/mL). In addition, the MIC with Staphylococcus aureus [16] is 10.4 µM (≈ 4 µg/mL); in the data set on Enterococcus faecalis [17], 41.8 µM (≈ 16 µg/mL); against Enterococcus faecalis [18] it was 20.9 µM (≈ 8 µg/mL); in the data set with Enterococcus faecium [19], 41.8 µM (≈ 16 µg/mL); against Enterococcus faecium [20] it was 41.8 µM (≈ 16 µg/mL); in the data set on Enterococcus faecium [21], 20.9 µM (≈ 8 µg/mL).
For the compound `O=C(Nc1ccc(Cl)c(C(F)(F)F)c1)Nc1cc(Cl)ccc1F`, the MIC is 2.72 µM (≈ 0.999 µg/mL) in [4]; 2.72 µM (≈ 0.999 µg/mL) in [5]; 2.72 µM (≈ 0.999 µg/mL) in data set [6]; 2.72 µM (≈ 0.999 µg/mL) in data set [7]; 2.72 µM (≈ 0.999 µg/mL) in the data set with Staphylococcus aureus [8]; 1.36 µM (≈ 0.499 µg/mL) with Staphylococcus aureus [9]. Also, the minimum inhibitory concentration (MIC) in the data set on Staphylococcus aureus [10] came to 2.72 µM (≈ 0.999 µg/mL); in the data set with Staphylococcus aureus [11], 2.72 µM (≈ 0.999 µg/mL); against Staphylococcus aureus [12], 1.36 µM (≈ 0.499 µg/mL); in the data set on Staphylococcus aureus [13], 1.36 µM (≈ 0.499 µg/mL); in the data set with Staphylococcus aureus [14], 2.72 µM (≈ 0.999 µg/mL); in the data set on Staphylococcus aureus [15], 2.72 µM (≈ 0.999 µg/mL). For the same compound, the MIC worked out at 1.36 µM (≈ 0.499 µg/mL) against Staphylococcus aureus [16]; 5.45 µM (≈ 2 µg/mL) against Enterococcus faecalis [17]; 5.45 µM (≈ 2 µg/mL) against Enterococcus faecalis [18]; 2.72 µM (≈ 0.999 µg/mL) in the data set with Enterococcus faecium [19]; 2.72 µM (≈ 0.999 µg/mL) with Enterococcus faecium [20]; 2.72 µM (≈ 0.999 µg/mL) with Enterococcus faecium [21].
As for `O=C(Nc1ccc(Cl)c(C(F)(F)F)c1)Nc1cc(F)c(F)cc1Cl`, the minimal inhibitory concentration (MIC) in data set [4] amounted to 1.3 µM (≈ 0.501 µg/mL); in [5] it was 0.65 µM (≈ 0.25 µg/mL); in [6], 1.3 µM (≈ 0.501 µg/mL); in [7] it was 0.65 µM (≈ 0.25 µg/mL); with Staphylococcus aureus [8], 1.3 µM (≈ 0.501 µg/mL); in the data set on Staphylococcus aureus [9], 1.3 µM (≈ 0.501 µg/mL). In addition, the MIC against Staphylococcus aureus [10] was determined as 1.3 µM (≈ 0.501 µg/mL); against Staphylococcus aureus [11], 1.3 µM (≈ 0.501 µg/mL); against Staphylococcus aureus [12], 1.3 µM (≈ 0.501 µg/mL); in the data set with Staphylococcus aureus [13], 0.65 µM (≈ 0.25 µg/mL); in the data set with Staphylococcus aureus [14] it was 1.3 µM (≈ 0.501 µg/mL); against Staphylococcus aureus [15], 0.65 µM (≈ 0.25 µg/mL). In addition, the MIC against Staphylococcus aureus [16] came out at 1.3 µM (≈ 0.501 µg/mL); against Enterococcus faecalis [17], 10.4 µM (≈ 4 µg/mL); in the data set with Enterococcus faecalis [18] it was 10.4 µM (≈ 4 µg/mL); in the data set on Enterococcus faecium [19] it was 5.19 µM (≈ 2 µg/mL); against Enterococcus faecium [20], 5.19 µM (≈ 2 µg/mL); in the data set on Enterococcus faecium [21] it was 2.6 µM (≈ 1 µg/mL).
For the compound `CNC(=O)c1cc(Oc2ccc(NC(=O)Nc3ccc(Cl)c(C(F)(F)F)c3)cc2)ccn1` [SORAFENIB], the MIC in [4] came to 4.3 µM (≈ 2 µg/mL); in [5], 8.61 µM (≈ 4 µg/mL); in data set [6] it was 4.3 µM (≈ 2 µg/mL); in [7] it was 4.3 µM (≈ 2 µg/mL); against Staphylococcus aureus [8], 8.61 µM (≈ 4 µg/mL); against Staphylococcus aureus [9], 4.3 µM (≈ 2 µg/mL). Moreover, the MIC against Staphylococcus aureus [10] is 8.61 µM (≈ 4 µg/mL); in the data set on Staphylococcus aureus [11], 17.2 µM (≈ 8 µg/mL); in the data set with Staphylococcus aureus [12] it was 17.2 µM (≈ 8 µg/mL); in the data set with Staphylococcus aureus [13], 4.3 µM (≈ 2 µg/mL); with Staphylococcus aureus [14], 8.61 µM (≈ 4 µg/mL); in the data set on Staphylococcus aureus [15], 8.61 µM (≈ 4 µg/mL). Further, the MIC against Staphylococcus aureus [16] was determined as 17.2 µM (≈ 8 µg/mL); against Enterococcus faecalis [17] it was 275 µM (≈ 128 µg/mL); in the data set with Enterococcus faecalis [18], 275 µM (≈ 128 µg/mL); against Enterococcus faecium [19], 275 µM (≈ 128 µg/mL); against Enterococcus faecium [20] it was 275 µM (≈ 128 µg/mL); in the data set on Enterococcus faecium [21] it was 275 µM (≈ 128 µg/mL). In data set [22], this compound gave a pIC50 of 5.48.
